Measured values as given in article PMC5118774 (Frontiers in Pharmacology, 2016).
“Also recorded” adds a separate entry of the source.

Tests used:
Format in all cases: in vivo, C57BL/6J mice
[1] = test system: mice exposed to unpredictable chronic mild stress (UCMS); test: Novelty suppressed feeding test after UCMS
Text: Mice underwent between 6 and 8 weeks of UCMS (see Supplementary Table S1 for example UCMS schedule). Animals were exposed to 2–3 mild stressors each day throughout the light/dark cycle, including wet bedding, brief restraint, forced bath, no bedding, reduced space, and predator odor over a period of several weeks (see details in Supplementary Material) ([Edgar et al., 2011]; [Lin and Sibille, 2015]). Female mice were housed 5 per cage, and male mice were housed 4 per cage in Optimice cages (Animal Care Systems Inc, Centennial, CO, USA). In experiment 3.4, UCMS was augmented with single-cage isolation housing in male mice beginning at the fourth week of UCMS until sacrifice. A timeline of experimental procedures can be found in Figure 2A (including timeline of the sections “ Drug Treatment” and “Behavioral Testing”).
At the start of the third week of UCMS and continuing for between 28 and 42 days (including time for behavioral tests, see “Behavioral Testing”) until sacrifice, mice received daily i.p injections of vehicle (85% ddH2O, 14% propylene glycol, 1% Tween 80) or 30 mg/kg SH-053-2’F-R-CH3 (α5-PAM; synthesized in the laboratory of Dr. James M. Cook) in a volume of […]. All animals received a single daily injection (chronic α5-PAM treated mice received SH-053-2’F-R-CH3, acute α5-PAM and vehicle treated animals received vehicle injections) between 8:00AM and 9:00AM until the start of behavioral testing. After 3 weeks of treatment, all mice began receiving a second injection 30 min prior to behavioral testing. All animals received a second injection of either vehicle (for chronic α5-PAM treated animals and UCMS-vehicle treated animals) or α5-PAM acutely (α5-PAM acute animals). All injections were performed using ultra-fine insulin syringes (31 gauge, 6 mm; Becton, Dickinson and Company, Franklin Lakes, NJ, USA).
After 5 weeks of UCMS, including 3 weeks of drug treatment, animals were assessed in a battery of behavioral tests (each test separated by 48 h, UCMS continued throughout behavioral testing for a period of 1–3 weeks). These tests included: Elevated plus maze: under red light, animals were placed on a plus maze with two open and two closed arms (30 cm × 5 cm). Number of entries into all arms as well as the time spent in the open arms was recorded for 10 min. Open field test: The open field test was conducted in a 43 cm ×43 cm arena under bright (800 lux) light. Using AnyMaze software (Stoelting, Wood Dale, IL, USA), the center 50% of the arena was identified and animals were tracked for 10 min. Novelty suppressed feeding test: Mice were food deprived for 24 h the day before testing. Testing occurred in brightly lit (∼1000 lux) open field arenas covered in bedding. A normal food pellet was placed into the brightly lit center and the latency for an animal to approach and bite the pellet was recorded over a 12 min session. Immediately following the session, animals were placed into their home cage and allowed to eat a weighed food pellet to assess hunger drive. Cookie test: The cookie test apparatus contains three identically sized chambers (40 cm × 20 cm × 20 cm) separated by two offset dividers. The outer walls of each chamber were clear and the only difference between each was the color of the divider, with one divider shaded white and the other black. One week prior to experimentation, mice were habituated in their home cage to a piece (2 ± 1 g) of Keebler Fudge Stripe Cookie (Kellogg’s Company, Battle Creek, MI, USA). On the first and second day of testing, a piece of cookie (2 ± 1 g) was placed into the chamber separated by the black divider. Mice were then placed into the opposing chamber separated by the white divider and monitored for 10 min. The latency for each mouse to bite the cookie was recorded. […]

[2] = Pharmacokinetic study, plasma and brain levels after single i.p. injection; details: 30 mg/kg i.p.; for Brain AUC0-3: mean ± SEM
Procedure: Adult (8 weeks old) male and female C57BL/6J (Military Farm, Belgrade, Serbia) were divided into six groups corresponding to pre-determined time intervals following a single 30 mg/kg α5-PAM injection (5, 10, 20, 40, 60, and 180 min). At 30 mg/kg α5-PAM administration has high affinity for the α5-subunit and lower affinity for GABAA-receptors containing other subunits ([Savic et al., 2010]). As the goal of this study was to selectively evaluate positive modulation of α5-containing GABAA receptors to stress-induced behaviors, we chose this dose to conduct preliminary pharmacokinetic analyses. Blood samples were collected in heparinized syringes via cardiac puncture of mice anesthetized with ketamine (100 mg/kg i.p.; 10% Ketamidor, Richter Pharma Ag, Wels, Austria), and centrifuged at 2500 rpm for 10 min to obtain plasma. Thereafter, mice were decapitated and brains were weighed, homogenized in 2 mL of methanol and centrifuged at 6000 rpm for 20 min. To determine the concentration of α5-PAM in plasma and supernatants of brain tissue homogenates, α5-PAM was extracted by solid phase extraction using Oasis HLB cartridges (Waters Corporation, Milford, MA, USA). The procedure of sample preparation and determination of α5-PAM by ultra performance liquid chromatography–tandem mass spectrometry (UPLC–MS/MS) with Thermo Scientific Accela 600 UPLC system connected to a Thermo Scientific TSQ Quantum Access MAX triple quadrupole mass spectrometer (Thermo Fisher Scientific, San Jose, CA, USA) equipped with electrospray ionization (ESI) source, is described in [Obradovic et al. (2014)].

[3] = test system: mice exposed to unpredictable chronic mild stress (UCMS); test: Open field test after UCMS
[4] = female UCMS mice, chronic treatment, vs UCMS-vehicle, second cohort (Figure 3)
[5] = male UCMS mice, 37.5 mg/kg acute or chronic (Figure 4B), 37.5 mg/kg
[6] = male mice, UCMS plus single housing, chronic treatment (Figure 4A)

## C#Cc1ccc2c(c1)C(c1ccccc1F)=N[C@H](C)c1c(C(=O)OCC)ncn1-2 [α5-PAM]
[1]; female UCMS mice, acute 30 mg/kg i.p. 30 min before test, vs UCMS-vehicle, first cohort (Figure 2)
  NSF latency to bite food pellet: reduced the latency to bite; also recorded: reducing latency to bite
[1]; female UCMS mice, acute treatment, vs UCMS-vehicle, second cohort (Figure 3)
  NSF latency to bite food pellet: reduces; also recorded: reduced the latency to bite
[1]; female UCMS mice, chronic 30 mg/kg i.p., vs UCMS-vehicle, first cohort (Figure 2)
  NSF latency to bite food pellet: reduced the latency to bite; also recorded: reducing latency to bite
[1]; [4]
  NSF latency to bite food pellet: reduces; also recorded: reduced the latency to bite
[1]; [5]
  NSF, stress-induced behavior: No change; also recorded: failed to reduce
[1]; male UCMS mice, acute or chronic 30 mg/kg i.p., first cohort (Figure 2)
  NSF latency to bite food pellet: no effect
[1]; [6]
  NSF, UCMS-induced behavioral phenotype: did not alter; also recorded: No significant effect
[2]
  Brain AUC0-3, females relative to males: approximately 1.25 X
[2]; female mice
  Brain AUC0-3: 4910.13 ± 1032.02 ng·h/g
[2]; male mice
  Brain AUC0-3: 3944.49 ± 560.30 ng·h/g
[3]; [4]
  OFT percentage of total distance traveled in the center: increases; also recorded: higher percentage of their total distance traveled
[3]; female and male UCMS mice, acute or chronic 30 mg/kg i.p., first cohort (Figure 2)
  OFT behavior: did not detect any significant main effects; also recorded: No effect
[3]; [5]
  OFT, stress-induced behavior: No change; also recorded: failed to reduce
[3]; [6]
  OFT, UCMS-induced behavioral phenotype: did not alter; also recorded: No significant effect
